Target: T1, Bbreβgal-III (Bifidobacterium breve, UniProt D4BMY8)
T1 construct: gene BIFBRE_03435; pET21a(+) NdeI/NotI, His-tagged, E. coli BL21 Star (DE3), IMAC purified
Assay: o-nitrophenol release at […] nm, nonlinear fit with substrate inhibition model
Assay type: biochemical
Settings: substrate inhibition constant; 50 mM sodium phosphate pH 6.5, 30 °C

T1 sequence (D4BMY8 1-691): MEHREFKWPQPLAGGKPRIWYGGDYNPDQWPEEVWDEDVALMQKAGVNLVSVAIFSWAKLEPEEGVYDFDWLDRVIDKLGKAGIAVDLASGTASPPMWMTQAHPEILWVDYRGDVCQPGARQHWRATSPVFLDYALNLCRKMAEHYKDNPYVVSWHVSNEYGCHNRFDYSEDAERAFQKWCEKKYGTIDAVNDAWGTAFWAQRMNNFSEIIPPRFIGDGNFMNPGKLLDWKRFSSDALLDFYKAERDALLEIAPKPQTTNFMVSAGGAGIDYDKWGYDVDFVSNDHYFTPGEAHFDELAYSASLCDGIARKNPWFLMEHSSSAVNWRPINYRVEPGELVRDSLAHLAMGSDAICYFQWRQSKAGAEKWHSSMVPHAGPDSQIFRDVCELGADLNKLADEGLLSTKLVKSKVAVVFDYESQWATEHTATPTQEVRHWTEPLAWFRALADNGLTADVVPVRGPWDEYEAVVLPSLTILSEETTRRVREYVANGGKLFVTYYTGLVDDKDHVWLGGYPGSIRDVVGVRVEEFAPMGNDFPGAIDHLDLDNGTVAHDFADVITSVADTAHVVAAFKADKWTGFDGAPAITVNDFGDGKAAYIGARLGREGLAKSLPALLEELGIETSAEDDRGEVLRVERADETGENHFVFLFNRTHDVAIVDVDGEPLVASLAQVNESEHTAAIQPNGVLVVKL

With `O=[N+]([O-])c1ccccc1O[C@@H]1O[C@H](CO)[C@H](O)[C@H](O)[C@H]1O` [o-nitrophenyl-β-D-galactopyranoside] the “k i,S” value was 13.84 ± 1.57 mM.

From PMC12756740, “A GH42 β‑Galactosidase from the Human Isolate Bifidobacterium breve DSM 20213: Biochemical and Transgalactosylation Properties Reveal the Potential for Galacto-oligosaccharides Synthesis” (ACS Omega, 2025)
